Results reported in patent US8471005B2 (Cephalon, Inc., priority 2008, dated 2013).
pIC50: −log10 of the molar value. Read-outs that look alike come from different tables or passages of the source.

Legend:
JAK2 = target: T1, JAK2 (Homo sapiens, UniProt O60674); test: Recombinant Human JAK2 Kinase Assay (TRF); format: biochemical; conditions: read-out: JAK2 Potency
T1 construct: host or cells: baculovirus expression system
How it was run: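 Baculovirus-expressed JAK2 (15 ng/ml) phosphorylated a biotinylated 15-mer peptide captured on Neutravidin, in 20 mM HEPES pH 7.2, 0.2 μM ATP, 1 mM MnCl2, 0.1% BSA, 2.5% DMSO final, 20 min at room temperature. Phosphoproduct detected by time-resolved fluorescence with Eu-N1-labelled PY100 antibody.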

ALK = target: T2, ALK (Homo sapiens, UniProt Q9UM73); test: ALK Kinase Assay (ELISA/TRF, PLC-γ substrate); format: biochemical; conditions: read-out: ALK Potency
T2 construct: host or cells: baculovirus expression system
How it was run: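 Read-out is time-resolved fluorescence from a Eu-N1-labeled PT66 antibody that binds phosphorylated PLC-γ, the substrate coated at 10 μg/mL in TBS. ALK at 30 ng/ml starts the reaction, which runs 15 minutes at 37° C.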

[1] = JAK2 kinase inhibition, 0.2 μM ATP
[2] = ALK kinase inhibition, 1 μM ATP

T1 sequence (O60674 whole entry): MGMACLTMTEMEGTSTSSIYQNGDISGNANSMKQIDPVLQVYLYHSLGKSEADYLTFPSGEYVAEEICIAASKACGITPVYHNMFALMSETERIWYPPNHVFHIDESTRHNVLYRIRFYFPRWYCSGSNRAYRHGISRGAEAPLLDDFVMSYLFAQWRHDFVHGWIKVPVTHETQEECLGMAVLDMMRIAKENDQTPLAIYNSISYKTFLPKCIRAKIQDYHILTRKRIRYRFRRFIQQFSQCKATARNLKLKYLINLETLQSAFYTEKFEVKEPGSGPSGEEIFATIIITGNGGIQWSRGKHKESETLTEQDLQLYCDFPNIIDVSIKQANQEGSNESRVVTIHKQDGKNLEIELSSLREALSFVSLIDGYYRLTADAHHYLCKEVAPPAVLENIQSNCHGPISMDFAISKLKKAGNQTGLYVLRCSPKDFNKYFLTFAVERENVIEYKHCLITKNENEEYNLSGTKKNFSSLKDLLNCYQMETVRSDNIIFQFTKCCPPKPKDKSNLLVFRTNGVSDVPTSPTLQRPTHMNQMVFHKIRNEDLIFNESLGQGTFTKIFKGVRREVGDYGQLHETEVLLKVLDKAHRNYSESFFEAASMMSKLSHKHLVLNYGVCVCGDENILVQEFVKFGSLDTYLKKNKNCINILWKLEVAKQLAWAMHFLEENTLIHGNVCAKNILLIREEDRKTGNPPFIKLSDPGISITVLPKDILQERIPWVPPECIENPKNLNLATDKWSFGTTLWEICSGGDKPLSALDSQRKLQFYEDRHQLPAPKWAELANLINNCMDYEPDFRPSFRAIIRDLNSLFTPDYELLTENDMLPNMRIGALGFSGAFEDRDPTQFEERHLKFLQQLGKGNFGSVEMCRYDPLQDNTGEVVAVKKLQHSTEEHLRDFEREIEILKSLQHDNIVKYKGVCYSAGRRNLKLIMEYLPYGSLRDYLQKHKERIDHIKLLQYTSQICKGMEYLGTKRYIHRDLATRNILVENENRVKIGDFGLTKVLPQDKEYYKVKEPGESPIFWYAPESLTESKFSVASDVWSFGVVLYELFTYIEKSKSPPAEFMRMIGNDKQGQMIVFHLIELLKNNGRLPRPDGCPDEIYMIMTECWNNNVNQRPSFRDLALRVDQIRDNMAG
T2 sequence (Q9UM73 19-1620): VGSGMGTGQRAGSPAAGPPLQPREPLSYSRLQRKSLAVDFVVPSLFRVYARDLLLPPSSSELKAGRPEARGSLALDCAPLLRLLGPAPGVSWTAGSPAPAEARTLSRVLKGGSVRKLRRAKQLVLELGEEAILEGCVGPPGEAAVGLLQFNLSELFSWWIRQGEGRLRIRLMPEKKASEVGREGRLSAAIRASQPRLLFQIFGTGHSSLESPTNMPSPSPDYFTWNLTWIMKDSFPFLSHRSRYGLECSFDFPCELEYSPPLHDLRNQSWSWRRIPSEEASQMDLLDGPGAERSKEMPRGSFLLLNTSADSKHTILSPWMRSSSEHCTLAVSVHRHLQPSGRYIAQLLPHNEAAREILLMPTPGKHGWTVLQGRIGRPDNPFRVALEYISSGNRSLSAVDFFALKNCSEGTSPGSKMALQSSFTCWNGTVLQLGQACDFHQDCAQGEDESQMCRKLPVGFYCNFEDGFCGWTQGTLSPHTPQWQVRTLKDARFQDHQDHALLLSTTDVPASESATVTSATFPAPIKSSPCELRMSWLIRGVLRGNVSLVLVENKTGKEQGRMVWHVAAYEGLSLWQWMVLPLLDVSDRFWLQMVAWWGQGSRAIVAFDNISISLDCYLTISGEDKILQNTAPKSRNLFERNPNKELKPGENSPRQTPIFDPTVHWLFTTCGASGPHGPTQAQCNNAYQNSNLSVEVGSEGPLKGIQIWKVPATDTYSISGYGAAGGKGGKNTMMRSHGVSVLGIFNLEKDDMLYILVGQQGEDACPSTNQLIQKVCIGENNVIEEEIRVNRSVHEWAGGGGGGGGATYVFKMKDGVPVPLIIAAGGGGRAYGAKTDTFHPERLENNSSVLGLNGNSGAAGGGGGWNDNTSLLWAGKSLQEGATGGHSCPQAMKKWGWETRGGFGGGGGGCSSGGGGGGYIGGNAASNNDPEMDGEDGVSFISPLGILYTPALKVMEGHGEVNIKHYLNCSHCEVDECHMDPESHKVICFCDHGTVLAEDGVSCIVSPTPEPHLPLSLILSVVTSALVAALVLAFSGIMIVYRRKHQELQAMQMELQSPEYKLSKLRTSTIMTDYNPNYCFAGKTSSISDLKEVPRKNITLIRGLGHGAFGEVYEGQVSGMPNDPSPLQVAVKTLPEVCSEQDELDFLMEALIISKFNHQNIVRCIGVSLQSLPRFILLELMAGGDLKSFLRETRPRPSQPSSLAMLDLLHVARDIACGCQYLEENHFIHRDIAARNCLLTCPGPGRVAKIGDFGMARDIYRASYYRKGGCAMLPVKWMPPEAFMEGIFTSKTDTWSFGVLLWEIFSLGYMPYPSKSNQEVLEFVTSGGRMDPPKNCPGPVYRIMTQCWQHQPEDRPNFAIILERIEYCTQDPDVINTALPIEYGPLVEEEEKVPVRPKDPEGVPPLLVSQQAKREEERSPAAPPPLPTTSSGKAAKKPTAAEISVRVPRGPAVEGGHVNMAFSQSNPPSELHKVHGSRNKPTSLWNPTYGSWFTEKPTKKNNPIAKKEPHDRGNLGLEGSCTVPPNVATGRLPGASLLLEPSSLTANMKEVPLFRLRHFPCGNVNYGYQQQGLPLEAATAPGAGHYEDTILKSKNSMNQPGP

pIC50 (JAK2; JAK2 Kinase Inhibition) | pIC50 (ALK; ALK Kinase Inhibition) | pIC50 (JAK2; [1]) | pIC50 (ALK; [2]) | SMILES
> 7.00 | 6.00 to 7.00 |  |  | CN1CCN(c2ccc(Nc3ncc4ccc(-c5ccccc5NS(C)(=O)=O)n4n3)cc2)CC1 [Example 429, N-(2-{2-[4-(4-Methyl-piperazin-1-yl)-phenylamino]-pyrrolo[2,1-f][1,2,4]triazin-7-yl}-phenyl)-methanesulfonamide]
 |  | > 7.00 | < 5.00 | CON=C1CCC(c2ccc(Nc3ncc4ccc(-c5cccc(S(=O)(=O)NC(C)(C)C)c5)n4n3)cc2)CC1 (centres unmarked) [Example 571, N-tert-Butyl-3-{2-[4-(4-methoxyimino-cyclohexyl)-phenylamino]-pyrrolo[2,1-f][1,2,4]triazin-7-yl}-benzenesulfonamide]
> 7.00 | 6.00 to 7.00 |  |  | CS(=O)(=O)c1ccc(-c2ccc3cnc(Nc4ccc(C5CCNCC5)cc4)nn23)cc1 [Example 1571, [7-(4-Methanesulfonyl-phenyl)-pyrrolo[2,1-f][1,2,4]triazin-2-yl]-(4-piperidin-4-yl-phenyl)-amine]
 |  | > 7.00 | 6.00 to 7.00 | COc1ccc(-c2ccc3cnc(Nc4cccc(NC(=O)[C@@H](C)OC)c4)nn23)cn1 [Example 900, (R)-2-Methoxy-N-{3-[7-(6-methoxy-pyridin-3-yl)-pyrrolo[2,1-f][1,2,4]triazin-2-ylamino]-phenyl}-propionamide]
 |  | > 7.00 | 6.00 to 7.00 | CC(C)(C)NS(=O)(=O)c1cccc(-c2ccc3cnc(Nc4ccc5nn(CCN6CCOCC6)cc5c4)nn23)c1 [Example 1345, N-tert-Butyl-3-{2-[2-(2-morpholin-4-yl-ethyl)-2H-indazol-5-ylamino]-pyrrolo[2,1-f][1,2,4]triazin-7-yl}-benzenesulfonamide]
 |  | > 7.00 | 6.00 to 7.00 | CN1CCC(c2ccc(Nc3ncc4ccc(-c5cccc(S(=O)(=O)N6CCCC6)c5)n4n3)cc2)CC1 [Example 903, [4-(1-Methyl-piperidin-4-yl)-phenyl]-{7-[3-(pyrrolidine-1-sulfonyl)-phenyl]-pyrrolo[2,1-f][1,2,4]triazin-2-yl}-amine]
 |  | > 7.00 | < 5.00 | CC(C)(C)NS(=O)(=O)c1cccc(-c2ccc3cnc(Nc4cncc(C(N)=O)c4)nn23)c1 [Example 665, 5-[7-(3-tert-Butylsulfamoyl-phenyl)-pyrrolo[2,1-f][1,2,4]triazin-2-ylamino]-nicotinamide]
 |  | > 7.00 | 6.00 to 7.00 | COc1ccccc1-c1ccc2cnc(Nc3ccc4nc[nH]c4c3)nn12 [Example 1306, (3H-Benzimidazol-5-yl)-[7-(2-methoxy-phenyl)-pyrrolo[2,1-f][1,2,4]triazin-2-yl]-amine]
 |  | 6.00 to 7.00 | > 7.00 | COc1cc(C2CCN(CC(=O)NC(CO)CO)CC2)ccc1Nc1ncc2ccc(-c3ccccc3OC)n2n1 [Example 1279, N-(2-Hydroxy-1-hydroxymethyl-ethyl)-2-(4-{3-methoxy-4-[7-(2-methoxy-phenyl)-pyrrolo[2,1-f][1,2,4]triazin-2-ylamino]-phenyl}-piperidin-1-yl)-acetamide]
 |  | 6.00 to 7.00 | > 7.00 | CCN(c1ccccc1-c1ccc2cnc(Nc3ccc(C4CCN(C[C@H](O)CO)CC4)cc3OC)nn12)S(C)(=O)=O [Example 872, N-[2-(2-{4-[1-((S)-2,3-Dihydroxy-propyl)-piperidin-4-yl]-2-methoxy-phenylamino}-pyrrolo[2,1-f][1,2,4]triazin-7-yl)-phenyl]-N-ethyl-methanesulfonamide]
 |  | > 7.00 | 6.00 to 7.00 | CN1CCCC1COc1cccc(Nc2ncc3ccc(-c4cnn(C)c4)n3n2)c1 (centres unmarked) [Example 1007, [7-(1-Methyl-1H-pyrazol-4-yl)-pyrrolo[2,1-f][1,2,4]triazin-2-yl]-[3-(1-methyl-pyrrolidin-2-ylmethoxy)-phenyl]-amine]
 |  | > 7.00 | > 7.00 | COc1cc(N2CCC(N3CCN(C)CC3)CC2)ccc1Nc1ncc2ccc(-c3ccc(Cl)nc3)n2n1 [Example 533, [7-(6-Chloro-pyridin-3-yl)-pyrrolo[2,1-f][1,2,4]triazin-2-yl]-{2-methoxy-4-[4-(4-methyl-piperazin-1-yl)-piperidin-1-yl]-phenyl}-amine]
 |  | > 7.00 | > 7.00 | COc1ccccc1-c1ccc2cnc(Nc3cccc(OCC4CCCN4C)c3)nn12 (centres unmarked) [Example 1006]
 |  | > 7.00 | > 7.00 | COc1ccccc1-c1ccc2cnc(Nc3ccc(C4CCN(C)CC4)cc3)nn12 [Example 1132, [7-(2-Methoxy-phenyl)-pyrrolo[2,1-f][1,2,4]triazin-2-yl]-[4-(1-methyl-piperidin-4-yl)-phenyl]-amine]
6.00 to 7.00 | > 7.00 |  |  | COc1cc(N2CCC(C)(N3CCOCC3)CC2)ccc1Nc1ncc2ccc(-c3ccccc3N(C)S(C)(=O)=O)n2n1 [Example 1468, N-(2-{2-[2-Methoxy-4-(4-methyl-4-morpholin-4-yl-piperidin-1-yl)-phenylamino]-pyrrolo[2,1-f][1,2,4]triazin-7-yl}-phenyl)-N-methyl-methanesulfonamide]
 |  | 5.00 to 6.00 | 6.00 to 7.00 | COc1cc(N2CCC(N3CCOCC3)CC2)ccc1Nc1ncc2ccc(-n3cccn3)n2n1 [Example 1272, [2-Methoxy-4-(4-morpholin-4-yl-piperidin-1-yl)-phenyl]-(7-pyrazol-1-yl-pyrrolo[2,1-f][1,2,4]triazin-2-yl)-amine]
 |  | > 7.00 | 6.00 to 7.00 | CN1CCN(c2cccc(Nc3ncc4ccc(-c5cn[nH]c5)n4n3)c2)CC1 [Example 970, [3-(4-Methyl-piperazin-1-yl)-phenyl]-[7-(1H-pyrazol-4yl)-pyrrolo[2,1-f][1,2,4]triazin-2-yl]-amine]
 |  | > 7.00 | 6.00 to 7.00 | N#CCCc1cccc(-c2ccc3cnc(Nc4ccc(N5CCOCC5)cc4)nn23)c1 [Example 1145, 3-{3-[2-(4-Morpholin-4-yl-phenylamino)-pyrrolo[2,1-f][1,2,4]triazin-7-yl]-phenyl}-propionitrile]
 |  | 6.00 to 7.00 | > 7.00 | COc1cc2c(cc1Nc1ncc3ccc(-c4ccccc4N(C)S(C)(=O)=O)n3n1)CCCC(N1CCOCC1)C2 (centres unmarked) [Example 993, N-{2-[2-(3-Methoxy-6-morpholin-4-yl-6,7,8,9-tetrahydro-5H-benzocyclohepten-2-ylamino)-pyrrolo[2,1-f][1,2,4]triazin-7-yl]-phenyl}-N-methyl-methanesulfonamide]
 |  | > 7.00 | 6.00 to 7.00 | CC(C)(C)NS(=O)(=O)c1cccc(-c2ccc3cnc(Nc4ccc5cn(CCN6CCOCC6)nc5c4)nn23)c1 [Example 1344, N-tert-Butyl-3-{2-[2-(2-morpholin-4-yl-ethyl)-2H-indazol-6-ylamino]-pyrrolo[2,1-f][1,2,4]triazin-7-yl}-benzenesulfonamide]
 |  | > 7.00 | 6.00 to 7.00 | CS(=O)(=O)c1cccc(-c2ccc3cnc(Nc4ccc(C5CN(CC(N)=O)C5)cc4)nn23)c1 [Example 578, 2-(3-{4-[7-(3-Methanesulfonyl-phenyl)-pyrrolo[2,1-f][1,2,4]triazin-2-ylamino]-phenyl}-azetidin-1-yl)-acetamide]
 |  | > 7.00 | 5.00 to 6.00 | COc1ccccc1-c1ccc2cnc(Nc3ccc(N4CCOCC4)cn3)nn12 [Example 1202, [7-(2-Methoxy-phenyl)-pyrrolo[2,1-f][1,2,4]triazin-2-yl]-(5-morpholin-4-yl-pyridin-2-yl)-amine]
 |  | 6.00 to 7.00 | > 7.00 | COc1cc(C2CCN(C[C@H](O)CO)CC2)ccc1Nc1ncc2ccc(-c3cccc(S(=O)(=O)NC(C)(C)C)c3)n2n1 [Example 695, N-tert-Butyl-3-(2-{4-[1-((S)-2,3-dihydroxy-propyl)-piperidin-4-yl]-2-methoxy-phenylamino}-pyrrolo[2,1-f][1,2,4]triazin-7-yl)-benzenesulfonamide]
 |  | > 7.00 | 6.00 to 7.00 | CN1CCN(CCn2cc(Nc3ncc4ccc(-c5ccccc5N(C)S(C)(=O)=O)n4n3)cn2)CC1 [Example 1212, N-Methyl-N-[2-(2-{1-[2-(4-methyl-piperazin-1-yl)-ethyl]-1H-pyrazol-4-ylamino}-pyrrolo[2,1-f][1,2,4]triazin-7-yl)-phenyl]-methanesulfonamide]
> 7.00 | 5.00 to 6.00 |  |  | CN1CCN(C(=O)C2CCCN(c3ccc(Nc4ncc5ccc(-c6ccc(S(C)(=O)=O)cc6)n5n4)cc3)C2)CC1 (centres unmarked) [Example 446, (1-{4-[7-(4-Methanesulfonyl-phenyl)-pyrrolo[2,1-f][1,2,4]triazin-2-ylamino]-phenyl}-piperidin-3-yl)-(4-methyl-piperazin-1-yl)-methanone]
 |  | > 7.00 | > 7.00 | COc1cc(N2CCC(N3CCOCC3)CC2)ccc1Nc1ncc2ccc(-c3c(F)cccc3OC)n2n1 [Example 509, [7-(2-Fluoro-6-methoxy-phenyl)-pyrrolo[2,1-f][1,2,4]triazin-2-yl]-[2-methoxy-4-(4-morpholin-4-yl-piperidin-1-yl)-phenyl]-amine]
> 7.00 | 5.00 to 6.00 |  |  | CS(=O)(=O)c1ccc(-c2ccc3cnc(Nc4ccc(N5CCC(CO)CC5)cc4)nn23)cc1 [Example 87, (1-{4-[7-(4-Methanesulfonyl-phenyl)-pyrrolo[2,1-f][1,2,4]triazin-2-ylamino]-phenyl}-piperidin-4-yl)-methanol]

SMILES | pIC50 (JAK2; JAK2 Kinase Inhibition) | pIC50 (ALK; ALK Kinase Inhibition) | pIC50 (JAK2; [1]) | pIC50 (ALK; [2])
CS(=O)(=O)c1cccc(-c2ccc3cnc(Nc4ccc(C5(C#N)CCN(CC(N)=O)CC5)cc4)nn23)c1 [Example 1546, 2-(4-Cyano-4-{4-[7-(3-methanesulfonyl-phenyl)-pyrrolo[2,1-f][1,2,4]triazin-2-ylamino]-phenyl}-piperidin-1-yl)-acetamide] | > 7.00 | 5.00 to 6.00 |  | 
